From US12679850B2, “TYK2 inhibitors and uses thereof” (Alumis Inc., priority 2020, dated 2026)

Assays:
[1] = molecular target: T1, human TYK2 (JH2domain-pseudokinase) (Homo sapiens, UniProt P29597); test: TYK2 JH2 domain binding assay (KINOMEscan); settings: 11-point 3-fold dilution, top concentration 30,000 nM, duplicate
T1 construct: host or cells: transiently transfected HEK293 cells; unpurified extract used
Method: Binding constants for the compounds described herein against the JH2 domain were determined by the following protocol for a KINOMEscan® assay (DiscoveRx). A fusion protein of a partial length construct of human TYK2 (JH2domain-pseudokinase) (amino acids G556 to D888 based on reference sequence NP_003322.3) and the DNA binding domain of NFkB is expressed in transiently transfected HEK293 cells. From these HEK 293 cells, extracts are prepared in M-PER extraction buffer (Pierce) in the presence of Protease Inhibitor Cocktail Complete (Roche) and Phosphatase Inhibitor Cocktail Set II (Merck) per manufacturers' instructions. The TYK2 (JH2domain-pseudokinase) fusion protein is labeled with a chimeric double-stranded DNA tag containing the NFkB binding site fused to an amplicon for qPCR readout, which is added directly to the expression extract (the final concentration of DNA-tag in the binding reaction is 0.1 nM). […]
The binding reaction is assembled by combining 16 μl of DNA-tagged kinase extract, 3.8 μl liganded affinity beads, and 0.18 μl test compound (PBS/0.05% Tween 20/10 mM DTT/0.1% BSA/2 μg/ml sonicated salmon sperm DNA)]. […] Kds were determined using an 11-point 3-fold compound dilution series with three DMSO control points. […]
Test compounds are prepared as 111× stocks in 100% DMSO. Kds were determined using an 11-point 3-fold compound dilution series with three DMSO control points. […]

pSTAT5 in Human PBMC = test: INFα induced pSTAT5 in human PBMC; format: cell-based; settings: fresh human PBMC, compound 1 hour, INFα 5000 units/ml for 15 minutes, MSD Phospho STAT5 kit; read-out: p-STAT5 IC50
Method: Fresh Human PBMCs were resuspended in RPMI 1640 medium with 10% FBS. Cells were seeded in a round bottom 96-well plate at the concentration of 200,000 cells/well. A 10-point dilution series of test compound (top dose 10 uM, 1:5 dilution) was added to the well using the liquid dispenser (Tecan D300e) and incubated for 1 hour at 37 C. Then human INFα recombinant protein (R&D Systems) was added to the well at the final concentration of 5000 units/ml and incubated for 15 minutes at 37 C. Cell lysates were prepared and analyzed by Phospho STAT5 (Tyr693) Kit (Meso Scale Discovery) following manufacturer's protocol.
For calculation of the inhibition rate, the relative pSTAT5 signal of each well=pSTAT5 signal of each well−the average pSTAT5 signal of baseline.
The inhibition %=(the average pSTAT5 signal of INFα treatment wells−the relative of pSTAT5 signal in each compound containing well)/the average pSTAT5 signal of INFα treatment wells*100%
The curve was plotted as the inhibition % (y-axis) vs. compounds concentration (x-axis) and was fitted with log(inhibitor) vs. normalized response—Variable slope by GraphPad Prism7.0.

T1 sequence (P29597 556-888): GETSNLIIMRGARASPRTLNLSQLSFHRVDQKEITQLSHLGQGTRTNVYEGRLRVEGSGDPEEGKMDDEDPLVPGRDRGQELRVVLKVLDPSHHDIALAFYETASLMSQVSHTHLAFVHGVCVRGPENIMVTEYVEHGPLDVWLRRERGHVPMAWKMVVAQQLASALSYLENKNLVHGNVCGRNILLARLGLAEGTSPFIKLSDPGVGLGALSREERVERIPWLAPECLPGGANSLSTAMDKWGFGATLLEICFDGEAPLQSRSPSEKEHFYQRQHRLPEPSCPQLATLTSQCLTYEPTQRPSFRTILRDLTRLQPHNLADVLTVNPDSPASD

SMILES: [2H]C([2H])([2H])n1nnc2c3cc(cc21)CO[C@@H]1CCC[C@H]1NC(=O)c1cnc2c(NC)cc(nn12)N3 [Example 1]
- Kd [1]: 2.2 pM
- IC50 (pSTAT5 in Human PBMC): 1700 pM
